# pEC50: −log10 of the molar value. Like-named read-outs stand apart in the source and are kept apart here.
# Molecular target: T1, mAChR M1 (UniProt P11229)
# T1 sequence (P11229 1-460): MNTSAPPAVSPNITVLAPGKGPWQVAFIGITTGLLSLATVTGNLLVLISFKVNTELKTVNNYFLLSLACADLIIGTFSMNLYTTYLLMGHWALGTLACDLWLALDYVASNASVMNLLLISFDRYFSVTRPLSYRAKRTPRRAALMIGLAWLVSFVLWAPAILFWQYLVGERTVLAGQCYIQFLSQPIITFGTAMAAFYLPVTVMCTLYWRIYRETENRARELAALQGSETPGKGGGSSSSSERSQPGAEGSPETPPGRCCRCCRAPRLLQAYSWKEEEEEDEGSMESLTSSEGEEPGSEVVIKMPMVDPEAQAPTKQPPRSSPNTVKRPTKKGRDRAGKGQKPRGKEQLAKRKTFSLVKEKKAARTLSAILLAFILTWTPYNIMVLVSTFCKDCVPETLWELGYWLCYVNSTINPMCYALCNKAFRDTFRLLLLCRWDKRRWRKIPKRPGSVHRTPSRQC
# Test: mAChR M1 cell-based functional assay (calcium mobilization, potentiation of EC20 acetylcholine response)
# Conditions: for pEC50: CHO-K1 cells expressing mAChR M1, increase in EC20 acetylcholine response, >10 μM estimated where no plateau in the curve
# Experimental: Chinese hamster ovary (CHO-K1) cells stably expressing rat (r)M1 were purchased from the American Type Culture Collection and cultured according to their indicated protocol. […] To make stable rM2, hM2, rM3, hM4, and rM4 cell lines for use in calcium mobilization assays, these cells also were stably transfected with a chimeric G-protein (Gqi5) (provided by B. R. Conklin, University of California, San Francisco) using Lipofectamine 2000. rM1, hM1, rM3, hM3, rM5, and hM5 cells were grown in Ham's F-12 medium containing 10% heat-inactivated fetal bovine serum (FBS), 20 mM HEPES, and 50 μg/mL G418 sulfate. rM2-Gqi5, hM2-Gqi5, and hM4-Gqi5 cells were grown in the same medium also containing 500 μg/mL Hygromycin B. Stable rM4-Gqi5 cells were grown in DMEM containing 10% heat-inactivated FBS, 20 mM HEPES, 400 μg/mL G418 sulfate, and 500 μg/mL Hygromycin B.
# For high throughput measurement of agonist-evoked increases in intracellular calcium, CHO-K1 cells stably expressing muscarinic receptors were plated in growth medium lacking G418 and hygromycin at 15,000 cells/20 μL/well in Greiner 384-well black-walled, tissue culture (TC)-treated, clear-bottom plates (VWR). Cells were incubated overnight at 37° C. and 5% CO2. […] Compound master plates were formatted in an 11 point CRC format (1:3 dilutions) in 100% DMSO with a starting concentration of 10 mM using the BRAVO liquid handler (Agilent). Test compound CRCs were then transferred to daughter plates ([…]) using the Echo acoustic plate reformatter (Labcyte, Sunnyvale, Calif.) and then diluted into assay buffer (40 μL) to a 2× stock using a Thermo Fisher Combi (Thermo Fisher Scientific, Waltham, Mass.).
# Calcium flux was measured using the Functional Drug Screening System (FDSS) 6000 (Hamamatsu Corporation, Tokyo, Japan) as an increase in the fluorescent static ratio. Compounds were applied to cells (20 μL, 2×) using the automated system of the FDSS 6000 at 4 s into the 300 s protocol and the data were collected at 1 Hz. […] Agonist activity was analyzed as a concentration-dependent increase in calcium mobilization upon compound addition. Positive allosteric modulator activity was analyzed as a concentration-dependent increase in the EC20 acetylcholine response. Antagonist activity was analyzed as a concentration-dependent decrease in the EC80 acetylcholine response. Concentration-response curves were generated using a four-parameter logistical equation in XLfit curve fitting software (IDBS, Bridgewater, N.J.) for Excel (Microsoft, Redmond, Wash.) or Prism (GraphPad Software, Inc., San Diego, Calif.).
# The calcium mobilization assay was also used to determine “efficacy”. In the context of the assays carried out for the data in Table II, “efficacy” (% ACh at 30 μM) is defined as the maximal response in the calcium flux as determined by the sigmoidal curve fit of the concentration response curve, or in the absence of an acceptable curve fit, the response recorded at 30 μM test compound, stated as a percentage of the response elicited by a concentration of Ach that induces approximately 80% of a maximal (i.e. saturating) ACh response.
# Substituted benzylspiroindolin-2-one analogs were synthesized as described above. Activity (EC50 and Emax) was determined in the mAChR M1 cell-based functional assay as described above and the data are shown in Table III. The compound number corresponds to the compound numbers used in Tables I and II.
SMILES,Emax,pEC50,Emax (% ACh maximum at 30 μM)
"Cn1cc(-c2ccc(CN3C(=O)C4(CCN(CC(F)F)C4)c4ccccc43)c(F)c2)cn1 (stereo not drawn) [Compound B26, 1′-(2,2-difluoroethyl)-1-(2-fluoro-4-(1-methyl-1H-pyrazol-4-yl)benzyl)spiro[indoline-3,3′-pyrrolidin]-2-one]",53%,5.47,–
CN1CCC(N2CCC3(C2)C(=O)N(Cc2ccc(-c4cnn(C)c4)cc2F)c2ccccc23)CC1 (stereo not drawn) [Compound B27],–,5.46,63%
Cn1cc(-c2ccc(CN3C(=O)C4(CCN(C5COC5)C4)c4ccccc43)c(F)c2)cn1 (stereo not drawn) [Compound B28],–,5.43,57%
Cn1cc(-c2ccc(CN3C(=O)C4(CCN(C5CCCSC5)CC4)c4ccccc43)c(F)c2)cn1 (stereo not drawn) [Compound B29],–,5.43,42%
Cn1cc(-c2ccc(CN3C(=O)C4(CCN(C5CCNC5)CC4)c4ccccc43)c(F)c2)cn1 (stereo not drawn) [Compound B33],–,5.41,52%
CN1CCC2(CC1)C(=O)N(Cc1ccc(-c3cnn(C)c3)cc1F)c1ccccc12 [Compound B36],–,5.40,48%
Cn1cc(-c2ccc(CN3C(=O)C4(CCN(C5CCCOC5)CC4)c4ccccc43)c(F)c2)cn1 (stereo not drawn) [Compound B38],–,5.33,50%
CN1CCC(N2CCC3(CC2)C(=O)N(Cc2ccc(-c4cnn(C)c4)cc2F)c2ccccc23)C1 (stereo not drawn) [Compound B39],–,5.33,55%
Cn1cc(-c2ccc(CN3C(=O)C4(CCN(C5CCSCC5)CC4)c4ccccc43)c(F)c2)cn1 [Compound B40],–,5.33,38%
Cn1cc(-c2ccc(CN3C(=O)C4(CCN(C5CCSC5)CC4)c4ccccc43)c(F)c2)cn1 (stereo not drawn) [Compound B42],–,5.31,51%
Cn1cc(-c2ccc(CN3C(=O)C4(CCN(C5CCCNC5)CC4)c4ccccc43)c(F)c2)cn1 (stereo not drawn) [Compound B43],–,5.30,48%
Cn1cc(-c2ccc(CN3C(=O)C4(CCN(C5CCCC5)CC4)c4ccccc43)c(F)c2)cn1 [Compound B46],–,5.26,34%
CN1CCC(N2CCC3(CC2)C(=O)N(Cc2ccc(-c4cnn(C)c4)cc2F)c2ccccc23)CC1 [Compound B48],–,5.23,51%
CN1CCCC(N2CCC3(CC2)C(=O)N(Cc2ccc(-c4cnn(C)c4)cc2F)c2ccccc23)C1 (stereo not drawn) [Compound B53],–,5.17,57%

# The next lines start with the values.
Emax,pEC50,Emax (% ACh maximum at 30 μM),SMILES
–,5.43,51%,Cc1nn(C)cc1-c1ccc(CN2C(=O)C3(CCN(C4CCCC4)C3)c3ccccc32)c(F)c1 (stereo not drawn) [Compound B30]
–,5.42,41%,CCCn1cc(-c2ccc(CN3C(=O)C4(CCN(C5CCCC5)C4)c4ccccc43)c(F)c2)cn1 (stereo not drawn) [Compound B32]
–,5.36,32%,CC(C)N1CCC2(C1)C(=O)N(Cc1ccc(-c3cnn(C)c3)cc1F)c1ccccc12 (stereo not drawn) [Compound B37]
–,5.31,56%,Cn1cc(-c2ccc(CN3C(=O)C4(CCN(C(=O)C5CC5)C4)c4ccccc43)c(F)c2)cn1 (stereo not drawn) [Compound B41]
–,5.30,49%,CC(C)N1CCC(N2CCC3(C2)C(=O)N(Cc2ccc(-c4cnn(C)c4)cc2F)c2ccccc23)CC1 (stereo not drawn) [Compound B44]
–,5.22,69%,CC(C)CN1CCC2(C1)C(=O)N(Cc1ccc(-c3cnn(C)c3)cc1F)c1ccccc12 (stereo not drawn) [Compound B49]
–,5.22,58%,Cn1cc(-c2ccc(CN3C(=O)C4(CCN(C5CNC5)C4)c4ccccc43)c(F)c2)cn1 (stereo not drawn) [Compound B50]
–,5.21,50%,Cn1cc(-c2ccc(CN3C(=O)C4(CCN(C(=O)C5CCC5)C4)c4ccccc43)c(F)c2)cn1 (stereo not drawn) [Compound B51]
–,5.17,46%,CC1CCC(N2CCC3(C2)C(=O)N(Cc2ccc(-c4cnn(C)c4)cc2F)c2ccccc23)CC1 (stereo not drawn) [Compound B52]
–,5.15,51%,CC1CCCC1N1CCC2(C1)C(=O)N(Cc1ccc(-c3cnn(C)c3)cc1F)c1ccccc12 (stereo not drawn) [Compound B54]

# — patent US9073935B2, “Substituted benzylspiroindolin-2-one analogs as positive allosteric modulators of the muscarinic acetylcholine receptor M1” (VANDERBILT UNIVERSITY, priority 2011, dated 2015)
